Results as given in US20180104269A1, “COMPOSITION FOR SUPPRESSING MUSCULAR FATTY CHANGE” (SUNTORY HOLDINGS LIMITED, priority 2015, published 2018).

How the values were obtained:
[1] = target: T1, PPARγ (Homo sapiens, UniProt P37231); details: read-out: IC50 as PPARγ inhibitor; cited from earlier work
T1 sequence (P37231 1-505): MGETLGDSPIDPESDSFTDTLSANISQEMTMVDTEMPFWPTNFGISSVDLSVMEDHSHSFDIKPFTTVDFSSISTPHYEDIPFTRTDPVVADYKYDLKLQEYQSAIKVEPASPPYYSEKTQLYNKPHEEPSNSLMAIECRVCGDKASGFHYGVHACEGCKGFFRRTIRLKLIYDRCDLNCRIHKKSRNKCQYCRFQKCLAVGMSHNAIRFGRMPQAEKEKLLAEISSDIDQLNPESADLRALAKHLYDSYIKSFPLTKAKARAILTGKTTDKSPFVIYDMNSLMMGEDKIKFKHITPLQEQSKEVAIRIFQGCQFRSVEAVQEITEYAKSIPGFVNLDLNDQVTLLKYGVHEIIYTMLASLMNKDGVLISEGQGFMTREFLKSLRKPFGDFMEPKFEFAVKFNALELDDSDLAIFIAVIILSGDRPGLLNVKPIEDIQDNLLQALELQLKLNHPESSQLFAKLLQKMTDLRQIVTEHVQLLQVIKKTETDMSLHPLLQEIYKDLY

[2] = system: myosatellite cells derived from a rat; assay: Oil red-O staining of oil droplets / count of adipocyte-like cells after adipogenic differentiation culture; type: cell-based
Source text: (§1) The gastrocnemial muscle, the soleus, the anterior tibial muscle, the extensor digitorum longus muscle, and the quadriceps femoris muscle were extracted from the Fischer 344 rat of 10 to 14 weeks old under anesthesia, and minced. The above tissues were subjected to enzymolysis with Protease (Sigma-Aldrich) and subjected to centrifugal treatment to obtain a precipitate. The obtained precipitate was suspended in Dulbecco's Modified Eagle Medium (DMEM) containing 10% horse fetus serum, and seeded on an 8-well slide glass (BD Thermo Science) so that the myosatellite cells are 5×10^4 to 7×10^4 cells/mL.
(§2) Myosatellite cells isolated by F-10 containing 20% cow serum (GIBCO) was cultured for 72 h. Then, the cells were cultured for 72 h. in an adipogenic induction medium (Lonza) containing 0.1% DMSO (Control), 5 μM quercetin, 10 μM quercetin or 50 μM quercetin. Then, the cells were cultured for 72 h. in an adipogenic maintenance medium (Lonza) containing the control, 5 μM quercetin, 10 μM quercetin or 50 μM quercetin.
After the cultured cells were washed in PBS, they were fixed by 10% formalin (Wako Pure Chemical Industries, Ltd.) at room temperature for 10 min. Then, they were reacted with 10% oil red-O solution (Sigma Aldrich) that was dissolved in 2-propanol at room temperature for 30 min.

[3] = cited from earlier work
[4] = system: myosatellite cells derived from a rat; assay: Quantification of amount of triglyceride in cells after adipogenic differentiation culture; type: cell-based; details: 5, 10, 50 μM vs 0 μM
Source text: as §1, §2
After the cells that were subjected to adipogenic differentiation culture were washed with PBS, a PBS that contains 5% Triton-X 100 was added as a cell lysate, and the cell solution was collected, heated and cooled. After the cells were centrifuged, triglyceride and protein in the supernatant were quantified. The LabAssay™ Triglyceride (Wako Pure Chemical Industries, Ltd.) was used for the quantification of triglyceride. The Pierce BCA Protein Assay Kit (Thermo Scientific) was used for the quantification of protein. […] The results were tested using the Dunnett's test, and the value of 5% or lower was determined to be the significant amount (*: p<0.05 vs 0 μM. †: p<0.05 vs 5 μM).

[5] = 5 μM, 72 h adipogenic induction medium then 72 h adipogenic maintenance medium, vs control (0.1% DMSO)
[6] = 10 μM, 72 h induction then 72 h maintenance medium
[7] = 50 μM, 72 h induction then 72 h maintenance medium

Structure (SMILES) | IC50 [1] [nM] | number of adipocyte-like cells stained by oil red-O ([2]; 1 μM, 72 h induction then 72 h maintenance medium) | number of adipocyte-like cells stained by oil red-O [2, 5] | number of adipocyte-like cells stained by oil red-O [2, 6] | solubility in water [3] | oil droplets stained by oil red-O [2, 5] | number of oil droplets stained by oil red-O [2, 6] | number of adipocyte-like cells stained by oil red-O [2, 7] | number of oil droplets stained by oil red-O [2, 7] | amount of protein in the cells in the well [4] | amount of triglyceride corrected by the amount of protein [4] | amount of triglyceride in cells after adipogenic differentiation ([4]; Dunnett's test)
O=C(Nc1ccccc1)c1cc([N+](=O)[O-])ccc1Cl [GW9662, reference compound] | 3.3 | did not decrease | did not decrease | did not decrease | – | – | – | – | – | – | – | –
O=c1c(O)c(-c2ccc(O)c(O)c2)oc2cc(O)cc(O)c12 [quercetin] | – | – | no significant decrease | decreased | insoluble to water | the same level of oil droplets as the control | decreased in a concentration dependent manner | decreased | decreased in a concentration dependent manner | did not change | decreased in a quercetin concentration dependent manner | decreased in a quercetin-concentration dependent manner
